These results are taken from patent US20100190694A1, “Methods for identifying patients who will respond well to cancer treatment” (priority 2009, published 2010).

The test system of one experiment is p21. The experiment in a line: p21 mRNA by RTQ-PCR in PBMC. In kind it is in vivo, human. Particulars: for P21 maximum percentage change versus baseline: one value per patient. The procedure: DLTs, i.e. grade ¾ non-hematologic toxicities and grade 4 neutropenia or thrombocytopenia, were determined in cycles 1 and 2. Safety was assessed by NCI CTC (v. 3) and efficacy by RECIST criteria. Expression of TS, DPD, and p21 mRNA was measured by RTQ-PCR in PBMC (20 patients at baseline, and pre-dosing, 6 and 24-hours post-dosing, on days 1 and 4 in cycle 1) and in tumor biopsies (8 patients at baseline and once on days 4 or 5 in cycle 1). Results were expressed as gene expression relative to actin (i.e. TS/Actin Relative Gene Expression, DPD/Actin Relative Gene Expression, and p21/Actin Relative Gene Expression).

For experiment [1], the system named is diverse tumour cell lines. The experiment in a line: proliferation of diverse tumour cell lines. In kind it is cell-based. The note with it: range over cell lines; read-out: IC50, blocks proliferation of diverse tumour cell lines.

“And” between values parts separate entries of the source, which are not always exact repeats. Identical values can stand only once. Marks after values point to notes of the source that are not given here.

Consider `O=C(/C=C/c1cccc(S(=O)(=O)Nc2ccccc2)c1)NO` [PXD-101], for which the “6mean-p21, Change from baseline at 6 h based on mean of d1 + d4” value in the experiment on p21 (PXD 300, one value per patient) was 41%; in the experiment with p21 (PXD 600, one value per patient, listed as PXD, with FU dose 250), −16% and −55%; in the experiment with p21 (PXD 600, one value per patient, listed as PXD, with FU dose 1000), 15%; in the experiment with p21 (PXD 1000, one value per patient, listed as PXD, with FU dose 250) it was 272% and −55% and 155% and −17% and 44% and 32%; in the experiment with p21 (PXD 1000, one value per patient, listed as PXD, with FU dose 500), 21% and −25%; in the experiment on p21 (PXD 1000, one value per patient, listed as PXD, with FU dose 1000) it was −35% and 23% and 74%. Moreover, the “D1-6: p21, Change from baseline at 6 h day 1” value in the experiment with p21 (PXD 300, one value per patient) is 35%; in the experiment on p21 (PXD 600, one value per patient, listed as PXD), −9% and 31% and −48%; in the experiment on p21 (PXD 1000, one value per patient, listed as PXD), 272% and −54% and 115% and −25% and 16% and 43% and 21% and 13% and −11% and 74% and 68%. Besides, the “P21 maximum percentage change versus baseline” value with p21 (cycle 1, Belinostat Dose 300 mg/m^2/day) was 48% *; in the experiment on p21 (cycle 1, Belinostat Dose 600 mg/m^2/day), 43% * and 88% * and −86%; in the experiment on p21 (cycle 1, Belinostat Dose 1000 mg/m^2/day), 68% * and 972% * and −72% and 715% * and 62% * and 156% * and 43% * and −71% and −83% and −86% and 74% * and −47%. Moreover, the IC50 in experiment [1] is 80 to 2430 nM.
